Assay results from patent publication US20240018147A1, “SALT OF COMPOUND FOR DEGRADING BTK, CRYSTAL FORM THEREOF, AND USE THEREOF IN MEDICINE” (HAISCO PHARMACEUTICALS PTE. LTD., priority 2020, published 2024).

How the values were obtained:
BTK = BTK (Homo sapiens (Human), UniProt Q06187); assay: Detection of BTK degradation in Mino cells; format: cell-based
Experimental: The Mino human mantle cell lymphoma cell line was purchased from ATCC and cultured under conditions of RPMI-1640+15% FBS+1% double antibody in a 37° C., 5% CO2 incubator. Cells were plated in a 6-well plate, with 5×10^5 cells/well. After plating, compounds at different concentrations were added and cultured in a 37° C., 5% CO2 incubator for 48 h. After culturing, the cells were collected. The cells were lysed on ice for 15 minutes by adding RIPA lysis buffer (Beyotime, Cat. P0013B) and centrifuged at 12000 rpm at 4° C. for 10 minutes. The protein sample of the supernatant was collected, subjected to protein quantification by using a BCA kit (Beyotime, Cat. P0009) and then diluted to 0.25 mg/mL. The expressions of BTK (CST, Cat. 85475) and the internal reference β-actin (CST, Cat. 37005) were detected using a fully automated western blot quantitative analyzer (Proteinsimple) with a kit (Protein simple, Cat. SM-W004). The expression level of BTK relative to the internal reference was calculated by using Compass software, and the DC50 value was calculated by using Origen9.2 software according to formula (1). Specifically, the BTKadministration denoted the expression level of BTK in administration groups at different doses, and the BTKvehicle denoted the expression level of BTK in the vehicle control group.
BTK %=BTKadministration/BTKvehicle×100 formula (1)

BTK protein = BTK protein (Mus musculus (Mouse), UniProt P35991); assay: Detection of BTK protein degradation in spleen of mice; format: in vivo; conditions: female ICR mice, intragastric, 3 consecutive days; conclusion in words
BTK protein, sequence (P35991 whole entry): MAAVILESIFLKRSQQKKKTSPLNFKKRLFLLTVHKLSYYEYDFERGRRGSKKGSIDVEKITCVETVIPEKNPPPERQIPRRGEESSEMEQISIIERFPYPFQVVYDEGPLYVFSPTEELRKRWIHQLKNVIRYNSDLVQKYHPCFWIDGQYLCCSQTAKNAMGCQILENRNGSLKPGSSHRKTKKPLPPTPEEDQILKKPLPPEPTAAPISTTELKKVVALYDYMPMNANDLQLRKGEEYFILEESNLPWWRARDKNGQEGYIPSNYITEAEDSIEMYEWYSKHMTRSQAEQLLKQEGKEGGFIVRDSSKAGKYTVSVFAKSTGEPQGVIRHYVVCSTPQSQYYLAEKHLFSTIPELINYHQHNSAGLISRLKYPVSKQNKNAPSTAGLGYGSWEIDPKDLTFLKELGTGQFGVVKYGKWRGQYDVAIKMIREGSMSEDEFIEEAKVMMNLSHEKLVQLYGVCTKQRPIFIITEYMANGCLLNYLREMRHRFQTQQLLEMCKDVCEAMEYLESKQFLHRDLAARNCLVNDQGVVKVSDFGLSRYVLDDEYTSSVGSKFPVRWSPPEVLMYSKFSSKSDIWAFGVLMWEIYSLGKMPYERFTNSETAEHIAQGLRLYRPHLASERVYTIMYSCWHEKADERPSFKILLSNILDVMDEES
Experimental: Female ICR mice, 6-8 weeks old, were purchased from Beijing Vital River Laboratory Animal Technology Co., Ltd., and the experiment was started after 3 days of adaptation. After 3 consecutive days of intragastric administration of compounds at different doses, the spleens of mice were taken. The spleen cells were collected, lysed on ice for 15 min by adding RIPA lysis buffer (Beyotime, Cat. P0013B), and then centrifuged at 12000 rpm at 4° C. for 10 min. The protein sample of the supernatant was collected, subjected to protein quantification by using a BCA kit (Beyotime, Cat. P0009) and then diluted to 0.25 mg/mL. The expressions of BTK (CST, Cat. 8547S) and the internal reference R-actin (CST, Cat. 3700S) were detected by using a fully automated western blot quantitative analyzer (Proteinsimple). The expression level of BTK relative to the internal reference was calculated by using Compass software, and the DD50 value was calculated by using Origen9.2 software according to formula (2). Specifically, the BTKadministration denoted the expression level of BTK in administration groups at different doses, and the BTKvehicle denoted the expression level of BTK in the vehicle control group.
BTK %=BTKadministration/BTKvehicle×100% formula (2)

BTK, sequence (Q06187 whole entry): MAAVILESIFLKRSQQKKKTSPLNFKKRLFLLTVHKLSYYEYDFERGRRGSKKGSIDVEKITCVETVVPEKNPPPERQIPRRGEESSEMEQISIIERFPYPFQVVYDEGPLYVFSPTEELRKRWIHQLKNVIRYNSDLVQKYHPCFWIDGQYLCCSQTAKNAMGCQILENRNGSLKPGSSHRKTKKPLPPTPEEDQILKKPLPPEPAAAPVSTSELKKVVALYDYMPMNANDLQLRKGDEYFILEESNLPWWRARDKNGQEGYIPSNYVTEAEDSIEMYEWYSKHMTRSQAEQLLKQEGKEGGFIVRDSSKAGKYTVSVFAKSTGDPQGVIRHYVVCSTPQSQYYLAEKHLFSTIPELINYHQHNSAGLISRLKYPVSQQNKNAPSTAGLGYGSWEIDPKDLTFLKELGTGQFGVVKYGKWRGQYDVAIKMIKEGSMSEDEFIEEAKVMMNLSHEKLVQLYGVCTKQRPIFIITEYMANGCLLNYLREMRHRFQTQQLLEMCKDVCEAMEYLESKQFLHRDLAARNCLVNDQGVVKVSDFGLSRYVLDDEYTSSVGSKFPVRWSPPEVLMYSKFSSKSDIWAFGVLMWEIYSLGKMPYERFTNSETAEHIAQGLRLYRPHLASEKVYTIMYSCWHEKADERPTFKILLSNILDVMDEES

Nc1ncnc2c1c(-c1ccc(Oc3ccccc3)cc1)nn2C1CCN(C2CCN(C3CN(c4ccc5c(c4)C(=O)N(C4CCC(=O)NC4=O)C5=O)C3)CC2)CC1 (stereo not drawn) [Compound 2, 5-(3-(4-(4-amino-3-(4-phenoxyphenyl)-1H-pyrazolo[3,4-d]pyrimidin-1-yl)-[1,4′-bipiperidin]-1′-yl)azetidin-1-yl)-2-(2,6-dioxopiperidin-3-yl)isoindoline-1,3-dione]
DC50 (BTK; Mino cells, 48 h, western blot, BTK relative to β-actin): 22.9 nM | degradation effect on BTK in Mino cells (BTK; conclusion in words): significant degradation effect | degradation effect on BTK proteins in spleens of mice (BTK protein): significant degradation effect
